These results are taken from patent publication US12410174B1, “Small molecular inhibitors of sting signaling compositions and methods of use” (TYERELL IMMUNOTHERAPEUTICS INC, priority 2020, dated 2025).

Experiment [1] concerns STING signaling. As to the kind of experiment: Luciferase live cell assay, type I IFN promoter in hTERT-pIFNβ-Glu cells after ISD transfection. It is filed as cell-based, human. The conditions noted are these: for inhibitory activity of the type I IFN promoter (luciferase induction): hTERT-pIFNβ-Glu cells, 50 μM or 25 μM, in response to ISD; for criteria to inhibit STING dependent signaling (type I IFN promoter in human cells): test of the 25 novel analogs. Here is the method:
Inhibition of IFNβ expression was measured by Luciferase induction at 24 hours after transfection of ISD, Mock is shown (210), ISD treatment only (220) was used as a control, according to an embodiment of the invention;
Example 1: Identification of small molecule antagonists of STING. In the presence of cytosolic DNA species, STING becomes activated to drive the transcription of cytokines such as type I IFN. Compounds binding to STING via TSA were subsequently examined for their ability to prevent cytosolic DNA species from activating the type I interferon (IFN) promoter, using a live cell assay. This assay comprised immortalized human fibroblasts that were stably transfected with the type I IFN promoter driving luciferase as well as the CMV promoter driving SEAP (hTERT-pIFNβ-Glu). The live cell assay has previously been disclosed in PCT/JS2019/025380 entitled IFN-βETA REPORTER SYSTEM FOR IMMORTALIZED PRIMARY CELLS inventor Glen N. Barber, which was filed Apr. 2, 2018 and published as WO2019195285, and which is herein incorporated by reference in its entirety and for all purposes. The ability of the small molecules to prevent activation of the type I IFN promoter and the transcription of luciferase, but not SEAP in response to cytosolic DNA species was assessed. The activation of STING, typically by CDNs, in turn activates the transcription factors NF-κB and IRF3, both of which are required to induce the transcriptional stimulation of the Type I IFN promoter, but not the CMV promoter as IRF3 and NF-kB transcription factor binding sites are not contained in the CMV promoter. The assay identified the small molecule Compound Y1 in the first screen (HTS), where the level of luciferase was not able to activate the type I IFN promoter or induce the expression of luciferase (see Table I).
Example 4: hTERT-BJ1 Telomerase Fibroblasts (hTERT) were originally purchased from Clontech and were cultured in 4:1 ratio of DMEM:Medium 199 supplement with 10% FBS, 4 mM L-Glutamine and 1 mM sodium pyruvate at 37° C. in a 5% CO2-humidified atmosphere. hTERT-BJ1 Telomerase Fibroblasts stably expressing the luciferase gene under the control of the interferon-beta promoter and SEAP gene under control of the CMV promoter) (hTERT-pIFNβ-Glu) were generated by the Barber laboratory.
Example 7: Luciferase assay: hTERT-BJ1 Telomerase Fibroblasts stably expressing the luciferase gene under the control of the interferon-beta promoter and SEAP gene under control of the CMV promoter) (hTERT-pIFNβ-Glu) were generated by the Barber laboratory. Luciferase assay was performed using Secrete-Pair Dual Luminescence Assay Kit from GeneCopoeia following the manufacturer's protocol.

The test system of experiment [2] is STING signaling. As to the kind of experiment: qPCR of IFNβ1 / Cxcl10 in normal hTERT cells after ISD transfection. In kind it is cell-based, human. The conditions noted are these: normal hTERT cells stimulated with ISD; 50 μM, 25 μM or 5 μM. As for the experimental part: (§1) Example 11: qPCR total RNA were reverse-transcribed using M-MLV Reverse Transcriptase (Promega). Real-time PCR was performed using Taqman Gene Expression Assay (Applied Biosystems) for innate immune genes and inflammatory cytokines.

The subject of experiment [3] is STING signaling. As to the kind of experiment: Confocal analysis of STING trafficking and IRF3 translocation in hTERT cells. It is filed as cell-based, human. Conditions: 6 hours after ISD transfection. As for the experimental part:
FIG. 2E are photographs showing confocal analysis of STING trafficking using anti-Sting performed at 6 hours after ISD transfection with Y1+220/without 220, Mock is shown (210), ISD treatment only (220) was used as control, treatment same as in FIG. 2A, according to an embodiment of the invention;
Example 10: Immunofluorescence Microscopy: Cells were cultured and treated in their appropriate media on Lab-Tek II chamber slides. Cell were fixed with 4% paraformaldehyde for 15 minutes in at 37° C. and permeabilized with 0.05% Triton X-100 for 5 minutes at room temperature. Immunostaining was performed with rabbit-anti-STING polyclonal, rabbit-anti-IRF3 (Santa Cruz Biotechnology) or rabbit-anti-p65 (Cell Signaling) followed by fluorescence conjugated secondary antibodies (FITC-goat-anti-rabbit) (Invitrogen).

In experiment [4] the test system is STING signaling. The experiment can be described thus: qPCR of Cxcl10 / Cxcl5 in MEF cells after ISD transfection. It is filed as cell-based, murine. As for the experimental part:
MEFs were obtained from E13.5 embryos by a standard procedure. Bone Marrow Derived Macro-phages (BMDM) were isolated from hind-limb femurs of 8-10 weeks old WT and Trex1 KO (TKO) mice. The hematopoietic cells from the bone marrow were cultured in complete DMEM (Invitrogen) including 10 ng/ml of Mouse Recombinant Colony-Stimulating Factor (M-CSF, R&D Systems) for 10 to 14 days.
as §1

In experiment [5] the test system is STING signaling. The experiment can be described thus: Western blot of STING, TBK1 and IRF3 phosphorylation in MEF cells. In kind it is cell-based, murine. Conditions: cytosolic DNA. As for the experimental part: Example 8: Immunoblot analysis: Equal amounts of proteins were resolved on sodium dodecyl sulfate (SDS)-Polyacrylamide gels and then transferred to polyvinylidene fluoride (PVDF) membranes (Millipore). After blocking with 5% Blocking Reagent, membranes were incubated with various primary antibodies (and appropriate secondary antibodies). The image was resolved using an enhanced chemiluminescence system ECL (Thermo Scientific) and detected by autoradiography (Kodak). Antibodies: rabbit polyclonal antibody against STING was developed in our laboratory as described previously in Ishikawa et al, 2008; other antibodies were obtained from following sources: β-actin (Sigma Aldrich), p-IRF3 (Cell Signaling), IRF3 (Santa Cruz Biotechnology), p-p65 (Cell Signaling), p65 (Cell Signaling), p-TBK1 (Cell Signaling), TBK1 (Abcam), cGAS (Cell Signaling).

Each structure is given as a SMILES string. Entries after “also recorded” stand apart in the source; their conditions may differ.

With `N#Cc1c(NC(=O)c2cccc(Cl)c2Cl)n(CCc2ccccc2)c2nc3ccccc3nc12` [Compound Y8, 2,3-dichloro-N-[3-cyano-1-(2-phenylethyl)-1H-pyrrolo[2,3-b]quinoxalin-2-yl]benzamide], in experiment [1], the “inhibitory activity of the type I IFN promoter (luciferase induction)” value (“inhibitory activity” below) is reported as “showed robust inhibitory activity of the type I IFN promoter”; the “criteria to inhibit STING dependent signaling (type I IFN promoter in human cells)” value was “found to meet the criteria to inhibit STING dependent signaling; also recorded: found to meet the criteria to inhibit STING dependent signaling and showed the most effective inhibitory activity”. The “production of STING-inducible cytokine Cxcl10 (qPCR)” value in experiment [2] is given as “robustly inhibited”. Also, in experiment [3], the “IRF3 translocation (confocal analysis)” value was “reproducibly prevented STING trafficking and IRF3 phosphorylation”; the “STING trafficking (confocal analysis)” value was “reproducibly prevented STING trafficking and IRF3 phosphorylation”. The “Cxcl10 production in response to ISD (qPCR)” value in experiment [4] was “impede the production of Cxcl10”. In addition, the “phosphorylation of TBK1, IRF3 and STING (Western blot)” value in experiment [5] is “can prevent the phosphorylation of TBK1 and IRF3 as well as STING phosphorylation”.

As to `N#Cc1c(NC(=O)c2ccccc2Cl)n(CCOc2ccccc2)c2nc3ccccc3nc12` [Compound Y2, 2-chloro-N-[3-cyano-1-(2-phenoxyethyl)-1H-pyrrolo [2,3-b]quinoxalin-2-yl] benzamide], the “criteria to inhibit STING dependent signaling (type I IFN promoter in human cells)” value in experiment [1] is “found to meet the criteria to inhibit STING dependent signaling; also recorded: found to meet the criteria to inhibit STING dependent signaling and showed the most effective inhibitory activity”.

As for `Cc1ccc(Cl)c(C(=O)Nc2c(C#N)c3nc4ccccc4nc3n2CCc2ccccc2)c1` [Compound Y4, 2-chloro-N-[3-cyano-1-(2-phenylethyl)-1H-pyrrolo [2,3-b]quinoxalin-2-yl]-5-methylbenzamide], in experiment [1], the “inhibitory activity” value was “showed robust inhibitory activity of the type I IFN promoter”; the “criteria to inhibit STING dependent signaling (type I IFN promoter in human cells)” value was “found to meet the criteria to inhibit STING dependent signaling; also recorded: found to meet the criteria to inhibit STING dependent signaling and showed the most effective inhibitory activity”. Besides, the “production of STING-inducible cytokine Cxcl10 (qPCR)” value in experiment [2] was “robustly inhibited”. Besides, in experiment [3], the “IRF3 translocation (confocal analysis)” value was “reproducibly prevented STING trafficking and IRF3 phosphorylation”; the “STING trafficking (confocal analysis)” value is “reproducibly prevented STING trafficking and IRF3 phosphorylation”. In experiment [4], the “Cxcl10 production in response to ISD (qPCR)” value was “impede the production of Cxcl10”. In addition, in experiment [5], the “phosphorylation of TBK1, IRF3 and STING (Western blot)” value was “can prevent the phosphorylation of TBK1 and IRF3 as well as STING phosphorylation”.

As for `N#Cc1c(NC(=O)c2ccccc2Cl)n(CCc2cccc(F)c2)c2nc3ccccc3nc12` [Compound Y7, 2-chloro-N-{3-cyano-1-[2-(3-fluorophenyl)ethyl]-1H-pyrrolo[2,3-b]quinoxalin-2-yl}benzamide], in experiment [1], the “inhibitory activity” value is given as “showed robust inhibitory activity of the type I IFN promoter”; the “criteria to inhibit STING dependent signaling (type I IFN promoter in human cells)” value is “found to meet the criteria to inhibit STING dependent signaling; also recorded: found to meet the criteria to inhibit STING dependent signaling and showed the most effective inhibitory activity”. Further, in experiment [2], the “production of STING-inducible cytokine Cxcl10 (qPCR)” value is “robustly inhibited”.

For `N#Cc1c(NC(=O)c2c(F)cccc2Cl)n(CCc2ccccc2)c2nc3ccccc3nc12` [Compound Y6, 2-chloro-N-[3-cyano-1-(2-phenylethyl)-1H-pyrrolo [2,3-b]quinoxalin-2-yl]-6-fluorobenzamide], in experiment [1], the “inhibitory activity” value was “showed robust inhibitory activity of the type I IFN promoter”; the “criteria to inhibit STING dependent signaling (type I IFN promoter in human cells)” value is “found to meet the criteria to inhibit STING dependent signaling; also recorded: found to meet the criteria to inhibit STING dependent signaling and showed the most effective inhibitory activity”. Also, the “production of STING-inducible cytokine Cxcl10 (qPCR)” value in experiment [2] is on record as “robustly inhibited”.

For the compound `COCCn1c(NC(=O)c2ccccc2Cl)c(C#N)c2nc3ccccc3nc21` [Compound Y3, 2-chloro-N-[3-cyano-1-(2-methoxyethyl)-1H-pyrrolo [2,3-ß]iquinoxalin-2-yl] benzamide], the “criteria to inhibit STING dependent signaling (type I IFN promoter in human cells)” value in experiment [1] is “found to meet the criteria to inhibit STING dependent signaling; also recorded: found to meet the criteria to inhibit STING dependent signaling and showed the most effective inhibitory activity”.

As to `N#Cc1c(NC(=O)c2cccc(F)c2Cl)n(CCc2ccccc2)c2nc3ccccc3nc12` [Compound Y5, 2-chloro-N-[3-cyano-1-(2-phenylethyl)-1H-pyrrolo [2,3-b]quinoxalin-2-yl]-3-floorobenzamide], in experiment [1], the “inhibitory activity” value is on record as “showed robust inhibitory activity of the type I IFN promoter”; the “criteria to inhibit STING dependent signaling (type I IFN promoter in human cells)” value was “found to meet the criteria to inhibit STING dependent signaling; also recorded: found to meet the criteria to inhibit STING dependent signaling and showed the most effective inhibitory activity”. The “production of STING-inducible cytokine Cxcl10 (qPCR)” value in experiment [2] was “robustly inhibited”.
